Reference: ChEMBL document CHEMBL5055626 (J Med Chem, 2021)
The source made the active and inactive calls. No cut-off for these calls is given here. Where a SMILES comes first, the peptide text is derived from it. Bridges are numbered along the chain shown (N, C = ends). [ ]: non-standard residue; d: D form. sY = N[C@@H](Cc1ccc(OS(=O)(=O)O)cc1)C(=O)O

Columns and labels:
[1] = target: Neuronal acetylcholine receptor; alpha3/beta2 (Rattus norvegicus, UniProt P04757+P12390); assay: Antagonist activity at rat alpha3beta2 nAChR expressed in xenopus oocytes assessed as inhibition of Ach- induced response at -70 mV holding potential preincubated for 5 mins followed by Ach stimulation by voltage-clamp based electrophysiological method; format: cell-based, Oocyte
Neuronal acetylcholine receptor; alpha3/beta2, sequence (P04757 whole entry): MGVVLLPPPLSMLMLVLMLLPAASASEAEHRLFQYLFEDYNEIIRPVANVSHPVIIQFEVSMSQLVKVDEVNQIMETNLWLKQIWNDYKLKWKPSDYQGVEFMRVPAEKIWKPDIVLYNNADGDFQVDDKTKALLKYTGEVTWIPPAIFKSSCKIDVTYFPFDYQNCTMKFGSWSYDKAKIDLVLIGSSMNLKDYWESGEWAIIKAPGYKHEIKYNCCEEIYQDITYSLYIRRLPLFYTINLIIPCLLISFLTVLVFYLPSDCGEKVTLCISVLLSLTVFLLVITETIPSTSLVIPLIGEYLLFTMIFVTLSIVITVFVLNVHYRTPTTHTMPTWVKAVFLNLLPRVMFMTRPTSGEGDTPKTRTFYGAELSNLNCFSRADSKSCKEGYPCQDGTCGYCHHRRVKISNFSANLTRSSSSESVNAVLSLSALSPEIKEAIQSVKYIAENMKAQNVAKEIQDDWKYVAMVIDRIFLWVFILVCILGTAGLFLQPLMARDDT
Neuronal acetylcholine receptor; alpha3/beta2, sequence (P12390 whole entry): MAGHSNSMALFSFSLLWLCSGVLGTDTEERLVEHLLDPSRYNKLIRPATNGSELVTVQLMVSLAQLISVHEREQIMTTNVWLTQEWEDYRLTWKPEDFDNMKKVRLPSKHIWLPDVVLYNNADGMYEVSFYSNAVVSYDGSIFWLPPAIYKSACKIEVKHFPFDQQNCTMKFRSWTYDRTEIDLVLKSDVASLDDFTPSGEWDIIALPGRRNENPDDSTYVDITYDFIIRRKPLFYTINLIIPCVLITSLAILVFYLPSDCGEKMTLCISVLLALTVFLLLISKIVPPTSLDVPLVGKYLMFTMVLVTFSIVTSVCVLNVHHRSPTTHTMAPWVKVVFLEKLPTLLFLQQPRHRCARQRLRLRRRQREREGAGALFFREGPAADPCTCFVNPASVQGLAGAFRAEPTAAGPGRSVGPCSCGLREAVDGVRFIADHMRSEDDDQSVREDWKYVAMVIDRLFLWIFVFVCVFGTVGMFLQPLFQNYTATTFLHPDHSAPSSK

[2] = target: Neuronal acetylcholine receptor subunit alpha-7 (Rattus norvegicus, UniProt Q05941); assay: Antagonist activity at rat alpha7 nAChR expressed in xenopus oocytes assessed as inhibition of Ach- induced response at -70 mV holding potential preincubated for 5 mins followed by Ach stimulation by voltage-clamp based electrophysiological method; format: cell-based, Oocyte
Neuronal acetylcholine receptor subunit alpha-7 (Rattus norvegicus, UniProt Q05941), sequence (Q05941 whole entry): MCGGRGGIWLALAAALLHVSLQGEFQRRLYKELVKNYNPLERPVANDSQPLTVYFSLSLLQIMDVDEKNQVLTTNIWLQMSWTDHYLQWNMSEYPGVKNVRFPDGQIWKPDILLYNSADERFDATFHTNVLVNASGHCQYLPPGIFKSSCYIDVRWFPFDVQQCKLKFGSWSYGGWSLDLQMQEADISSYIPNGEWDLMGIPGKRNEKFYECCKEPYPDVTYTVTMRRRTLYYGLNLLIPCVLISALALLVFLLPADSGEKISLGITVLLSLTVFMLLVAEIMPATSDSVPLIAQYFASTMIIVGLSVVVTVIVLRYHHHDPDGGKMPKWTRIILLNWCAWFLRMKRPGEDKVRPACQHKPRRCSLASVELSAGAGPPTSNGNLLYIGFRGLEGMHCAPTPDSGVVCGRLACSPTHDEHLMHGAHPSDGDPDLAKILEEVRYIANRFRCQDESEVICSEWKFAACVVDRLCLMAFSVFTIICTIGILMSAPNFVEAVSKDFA

[3] = Antagonist activity at rat nAChR alpha7 Q141H mutant expressed in xenopus oocytes assessed as inhibition of Ach- induced response at -70 mV holding potential preincubated for 5 mins followed by Ach stimulation by voltage-clamp based electrophysiological method; format: cell-based; conditions: Oocyte
[4] = Antagonist activity at rat nAChR alpha7 N184S mutant expressed in xenopus oocytes assessed as inhibition of Ach- induced response at -70 mV holding potential preincubated for 5 mins followed by Ach stimulation by voltage-clamp based electrophysiological method; format: cell-based; conditions: Oocyte
[5] = Antagonist activity at rat nAChR alpha7 K186R mutant expressed in xenopus oocytes assessed as inhibition of Ach- induced response at -70 mV holding potential preincubated for 5 mins followed by Ach stimulation by voltage-clamp based electrophysiological method; format: cell-based; conditions: Oocyte
[6] = target: Neuronal acetylcholine receptor subunit alpha-7 (Homo sapiens, UniProt P36544); format: cell-based, Oocyte
Neuronal acetylcholine receptor subunit alpha-7 (Homo sapiens, UniProt P36544), sequence (P36544 whole entry): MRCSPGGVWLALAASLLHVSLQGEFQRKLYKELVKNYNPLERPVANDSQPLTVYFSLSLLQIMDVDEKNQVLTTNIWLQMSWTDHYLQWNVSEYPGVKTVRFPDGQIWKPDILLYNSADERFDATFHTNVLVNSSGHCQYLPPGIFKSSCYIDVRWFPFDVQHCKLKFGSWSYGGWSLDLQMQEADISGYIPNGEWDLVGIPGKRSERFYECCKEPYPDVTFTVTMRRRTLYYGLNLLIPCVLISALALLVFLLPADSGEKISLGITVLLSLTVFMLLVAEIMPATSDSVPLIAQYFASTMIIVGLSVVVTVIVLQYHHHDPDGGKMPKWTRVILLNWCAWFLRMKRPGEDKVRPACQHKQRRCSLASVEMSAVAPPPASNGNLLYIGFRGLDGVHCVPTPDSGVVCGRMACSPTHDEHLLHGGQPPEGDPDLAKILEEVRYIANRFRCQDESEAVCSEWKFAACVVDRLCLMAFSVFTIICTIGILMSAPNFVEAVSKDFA

[7] = Antagonist activity at human nAChR alpha7 S184N mutant expressed in xenopus oocytes assessed as inhibition of Ach- induced response at -70 mV holding potential preincubated for 5 mins followed by Ach stimulation by voltage-clamp based electrophysiological method; format: cell-based; conditions: Oocyte
[8] = Antagonist activity at human nAChR alpha7 R186K mutant expressed in xenopus oocytes assessed as inhibition of Ach- induced response at -70 mV holding potential preincubated for 5 mins followed by Ach stimulation by voltage-clamp based electrophysiological method; format: cell-based; conditions: Oocyte
[9] = Antagonist activity at human nAChR alpha7 S184N/R186K double mutant expressed in xenopus oocytes assessed as inhibition of Ach- induced response at -70 mV holding potential preincubated for 5 mins followed by Ach stimulation by voltage-clamp based electrophysiological method; format: cell-based; conditions: Oocyte
[10] = target: Nicotinic acetylcholine receptor alpha6/alpha3/beta4 (Homo sapiens, UniProt P30926+P32297+Q15825); assay: Antagonist activity at rat alpha6/alpha3beta4 nAChR expressed in xenopus oocytes assessed as inhibition of Ach- induced response at -70 mV holding potential preincubated for 5 mins followed by Ach stimulation by voltage-clamp based electrophysiological method; format: cell-based, Oocyte
Nicotinic acetylcholine receptor alpha6/alpha3/beta4, sequence (P30926 whole entry): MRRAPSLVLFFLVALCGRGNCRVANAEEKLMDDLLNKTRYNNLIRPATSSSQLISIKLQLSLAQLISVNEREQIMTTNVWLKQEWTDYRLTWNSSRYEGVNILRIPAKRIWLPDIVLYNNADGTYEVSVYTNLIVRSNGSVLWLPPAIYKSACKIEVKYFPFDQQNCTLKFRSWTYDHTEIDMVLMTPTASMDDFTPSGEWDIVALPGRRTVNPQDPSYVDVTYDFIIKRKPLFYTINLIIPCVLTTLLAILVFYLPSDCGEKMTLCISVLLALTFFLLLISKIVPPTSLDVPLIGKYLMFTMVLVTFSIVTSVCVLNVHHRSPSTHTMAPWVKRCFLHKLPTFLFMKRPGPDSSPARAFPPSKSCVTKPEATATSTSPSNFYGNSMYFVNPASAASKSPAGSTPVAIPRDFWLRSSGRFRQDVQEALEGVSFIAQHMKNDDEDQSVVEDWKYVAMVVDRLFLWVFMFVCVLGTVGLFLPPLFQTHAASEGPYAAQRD
Nicotinic acetylcholine receptor alpha6/alpha3/beta4, sequence (P32297 whole entry): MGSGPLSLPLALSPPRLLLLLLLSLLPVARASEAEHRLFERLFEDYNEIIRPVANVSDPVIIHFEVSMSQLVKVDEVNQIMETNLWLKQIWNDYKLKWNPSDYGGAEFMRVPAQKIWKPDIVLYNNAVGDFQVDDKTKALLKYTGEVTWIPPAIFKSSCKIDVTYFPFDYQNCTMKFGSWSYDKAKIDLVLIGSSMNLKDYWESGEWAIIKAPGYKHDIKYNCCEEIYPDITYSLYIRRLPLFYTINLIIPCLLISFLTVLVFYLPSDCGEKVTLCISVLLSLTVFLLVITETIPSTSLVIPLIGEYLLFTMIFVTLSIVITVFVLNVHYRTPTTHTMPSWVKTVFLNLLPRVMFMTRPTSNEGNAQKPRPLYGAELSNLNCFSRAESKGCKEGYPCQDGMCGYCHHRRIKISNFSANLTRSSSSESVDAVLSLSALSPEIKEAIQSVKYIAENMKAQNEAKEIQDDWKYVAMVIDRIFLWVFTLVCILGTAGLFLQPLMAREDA
Nicotinic acetylcholine receptor alpha6/alpha3/beta4, sequence (Q15825 whole entry): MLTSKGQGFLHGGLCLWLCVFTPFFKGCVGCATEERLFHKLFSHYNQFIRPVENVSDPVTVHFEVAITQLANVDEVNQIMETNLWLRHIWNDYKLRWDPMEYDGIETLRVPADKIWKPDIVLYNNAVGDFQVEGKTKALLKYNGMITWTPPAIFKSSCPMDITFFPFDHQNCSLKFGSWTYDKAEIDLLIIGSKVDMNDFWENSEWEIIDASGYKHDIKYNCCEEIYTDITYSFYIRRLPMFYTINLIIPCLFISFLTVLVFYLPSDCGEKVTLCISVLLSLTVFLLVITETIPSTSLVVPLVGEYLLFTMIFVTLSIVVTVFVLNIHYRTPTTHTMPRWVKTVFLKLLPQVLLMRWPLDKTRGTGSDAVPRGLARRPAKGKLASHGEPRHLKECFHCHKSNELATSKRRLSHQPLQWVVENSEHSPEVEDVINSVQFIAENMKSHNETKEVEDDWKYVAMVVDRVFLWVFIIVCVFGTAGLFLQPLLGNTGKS

[11] = Antagonist activity at rat alpha6/ alpha3beta2beta3 nAChR expressed in xenopus oocytes assessed as inhibition of Ach- induced response at -70 mV holding potential preincubated for 5 mins followed by Ach stimulation by voltage-clamp based electrophysiological method; format: cell-based; conditions: Oocyte
[12] = target: Neuronal acetylcholine receptor; alpha2/beta2 (Rattus norvegicus, UniProt P12389+P12390); assay: Antagonist activity at rat alpha2beta2 nAChR expressed in xenopus oocytes assessed as inhibition of Ach- induced response at -70 mV holding potential preincubated for 5 mins followed by Ach stimulation by voltage-clamp based electrophysiological method; format: cell-based, Oocyte
[13] = target: Neuronal acetylcholine receptor; alpha2/beta4 (Rattus norvegicus, UniProt P12389+P12392); assay: Antagonist activity at rat alpha2beta4 nAChR expressed in xenopus oocytes assessed as inhibition of Ach- induced response at -70 mV holding potential preincubated for 5 mins followed by Ach stimulation by voltage-clamp based electrophysiological method; format: cell-based, Oocyte
[14] = target: Neuronal acetylcholine receptor; alpha3/beta4 (Rattus norvegicus, UniProt P04757+P12392); assay: Antagonist activity at rat alpha3beta4 nAChR expressed in xenopus oocytes assessed as inhibition of Ach- induced response at -70 mV holding potential preincubated for 5 mins followed by Ach stimulation by voltage-clamp based electrophysiological method; format: cell-based, Oocyte
[15] = target: Neuronal acetylcholine receptor; alpha4/beta2 (Rattus norvegicus, UniProt P09483+P12390); assay: Antagonist activity at rat alpha4beta2 nAChR expressed in xenopus oocytes assessed as inhibition of Ach- induced response at -70 mV holding potential preincubated for 5 mins followed by Ach stimulation by voltage-clamp based electrophysiological method; format: cell-based, Oocyte
Neuronal acetylcholine receptor; alpha4/beta2, sequence (P09483 whole entry): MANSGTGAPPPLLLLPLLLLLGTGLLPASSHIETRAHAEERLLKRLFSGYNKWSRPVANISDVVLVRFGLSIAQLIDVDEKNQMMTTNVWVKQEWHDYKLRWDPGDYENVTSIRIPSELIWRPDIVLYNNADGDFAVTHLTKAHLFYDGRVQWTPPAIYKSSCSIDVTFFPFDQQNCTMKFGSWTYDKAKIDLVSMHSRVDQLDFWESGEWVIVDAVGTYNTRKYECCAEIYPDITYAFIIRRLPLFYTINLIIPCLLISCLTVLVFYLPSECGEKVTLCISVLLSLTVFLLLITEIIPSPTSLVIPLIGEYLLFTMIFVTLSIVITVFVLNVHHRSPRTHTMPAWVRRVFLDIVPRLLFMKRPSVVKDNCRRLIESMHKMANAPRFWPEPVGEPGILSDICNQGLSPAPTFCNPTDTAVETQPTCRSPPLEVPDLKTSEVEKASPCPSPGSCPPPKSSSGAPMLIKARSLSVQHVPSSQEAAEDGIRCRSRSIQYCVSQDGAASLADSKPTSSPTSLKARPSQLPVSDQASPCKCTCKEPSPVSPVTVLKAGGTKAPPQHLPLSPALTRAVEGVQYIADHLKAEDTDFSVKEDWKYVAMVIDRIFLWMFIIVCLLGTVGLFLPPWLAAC
Neuronal acetylcholine receptor; alpha4/beta2, sequence (P12390 whole entry): as the sequence (P12390 whole entry) above

[16] = target: Neuronal acetylcholine receptor; alpha4/beta4 (Rattus norvegicus, UniProt P09483+P12392); assay: Antagonist activity at rat alpha4beta4 nAChR expressed in xenopus oocytes assessed as inhibition of Ach- induced response at -70 mV holding potential preincubated for 5 mins followed by Ach stimulation by voltage-clamp based electrophysiological method; format: cell-based, Oocyte
[17] = target: Nicotinic acetylcholine receptor alpha9/alpha10 (Rattus norvegicus, UniProt P43144+Q9JLB5); assay: Antagonist activity at rat alpha9alpha10 nAChR expressed in xenopus oocytes assessed as inhibition of Ach- induced response at -70 mV holding potential preincubated for 5 mins followed by Ach stimulation by voltage-clamp based electrophysiological method; format: cell-based, Oocyte
[18] = target: Nicotinic acetylcholine receptor alpha9/alpha10 (Rattus norvegicus) (UniProt P43144+Q9JLB5); assay: Antagonist activity at rat alpha9alpha10 nAChR expressed in xenopus oocytes assessed as inhibition of Ach- induced response at 10 uM at -70 mV holding potential preincubated for 5 mins followed by Ach stimulation by voltage-clamp based electrophysiological method; format: cell-based; conditions: Oocyte
[19] = target: Neuronal acetylcholine receptor; alpha2/beta2 (Rattus norvegicus) (UniProt P12389+P12390); assay: Antagonist activity at rat alpha2beta2 nAChR expressed in xenopus oocytes assessed as inhibition of Ach- induced response at 10 uM at -70 mV holding potential preincubated for 5 mins followed by Ach stimulation by voltage-clamp based electrophysiological method; format: cell-based; conditions: Oocyte
[20] = target: Neuronal acetylcholine receptor; alpha2/beta4 (Rattus norvegicus) (UniProt P12389+P12392); assay: Antagonist activity at rat alpha2beta4 nAChR expressed in xenopus oocytes assessed as inhibition of Ach- induced response at 10 uM at -70 mV holding potential preincubated for 5 mins followed by Ach stimulation by voltage-clamp based electrophysiological method; format: cell-based; conditions: Oocyte
[21] = target: Neuronal acetylcholine receptor; alpha3/beta4 (Rattus norvegicus) (UniProt P04757+P12392); assay: Antagonist activity at rat alpha3beta4 nAChR expressed in xenopus oocytes assessed as inhibition of Ach- induced response at 10 uM at -70 mV holding potential preincubated for 5 mins followed by Ach stimulation by voltage-clamp based electrophysiological method; format: cell-based; conditions: Oocyte
[22] = target: Neuronal acetylcholine receptor; alpha4/beta2 (Rattus norvegicus) (UniProt P09483+P12390); assay: Antagonist activity at rat alpha4beta2 nAChR expressed in xenopus oocytes assessed as inhibition of Ach- induced response at 10 uM at -70 mV holding potential preincubated for 5 mins followed by Ach stimulation by voltage-clamp based electrophysiological method; format: cell-based; conditions: Oocyte
[23] = target: Neuronal acetylcholine receptor; alpha4/beta4 (Rattus norvegicus) (UniProt P09483+P12392); assay: Antagonist activity at rat alpha4beta4 nAChR expressed in xenopus oocytes assessed as inhibition of Ach- induced response at 10 uM at -70 mV holding potential preincubated for 5 mins followed by Ach stimulation by voltage-clamp based electrophysiological method; format: cell-based; conditions: Oocyte

CC[C@H](C)[C@H](N)C(=O)N[C@@H](CCCNC(=N)N)C(=O)N[C@@H](CC(=O)O)C(=O)N[C@@H](CCC(=O)O)C(=O)N[C@H]1CSSC[C@H]2NC(=O)[C@H](C)NC(=O)[C@@H]3CCCN3C(=O)[C@H](CC(N)=O)NC(=O)[C@H](CO)NC(=O)[C@H](CSSC[C@@H](C(=O)N[C@@H](CCCNC(=N)N)C(=O)N[C@@H](CCCNC(=N)N)C(=O)N[C@@H](CCCNC(=N)N)C(=O)O)NC(=O)[C@H](C(C)C)NC(=O)[C@H](Cc3cnc[nH]3)NC(=O)[C@@H]3CCCN3C(=O)[C@H](CC(N)=O)NC(=O)[C@H](CC(N)=O)NC(=O)[C@H](C(C)C)NC(=O)[C@H](CCCNC(=N)N)NC2=O)NC1=O
IC50 [1]: 0.018 µM

C[C@@H]1NC(=O)[C@H](C)NC(=O)[C@@H]2CSSC[C@H](NC(=O)CNC(=O)CN)C(=O)N[C@@H](CSSC[C@@H](C(N)=O)NC(=O)[C@H](Cc3ccc(OS(=O)(=O)O)cc3)NC(=O)[C@H](CC(=O)O)NC(=O)[C@H](CCC(N)=O)NC(=O)[C@H](CC(N)=O)NC(=O)[C@H](CC(N)=O)NC1=O)C(=O)N[C@@H](CO)C(=O)N[C@@H](Cc1cnc[nH]1)C(=O)N1CCC[C@H]1C(=O)N[C@@H](C)C(=O)N2
IC50 [1]: 0.00028 µM

CC[C@H](C)[C@@H]1NC(=O)[C@H](Cc2cnc[nH]2)NC(=O)[C@@H]2CCCN2C(=O)[C@H](CC(N)=O)NC(=O)[C@H](CC(N)=O)NC(=O)[C@H](C(C)C)NC(=O)[C@H](CC(N)=O)NC(=O)[C@@H]2CSSC[C@H](NC(=O)CN)C(=O)N[C@@H](CSSC[C@@H](C(=O)O)NC1=O)C(=O)N[C@@H](CO)C(=O)N[C@@H](CC(=O)O)C(=O)N1CCC[C@H]1C(=O)N[C@@H](C)C(=O)N2 (H-GCCSDPACNVNNPHIC-OH; disulfide 2-8, 3-16)
IC50 [2]: 0.1 µM | IC50 [3]: 0.12 µM | IC50 [4]: 0.13 µM | IC50 [5]: 7.48 µM | IC50 [6]: 13.7 µM | IC50 [7]: 7.14 µM | IC50 [8]: 0.2 µM | IC50 [9]: 0.099 µM

CC(C)C[C@@H]1NC(=O)[C@H](CC(=O)O)NC(=O)[C@@H]2CCCN2C(=O)[C@H](Cc2cnc[nH]2)NC(=O)[C@H](C)NC(=O)[C@H](CC(N)=O)NC(=O)[C@H](CCCNC(=N)N)NC(=O)[C@@H]2CSSC[C@H](NC(=O)CN)C(=O)N[C@@H](CSSC[C@@H](C(=O)O)NC1=O)C(=O)N[C@@H](CO)C(=O)N[C@@H](CC(=O)O)C(=O)N1CCC[C@H]1C(=O)N1CCC[C@H]1C(=O)N2 (H-GCCSDPPCRNAHPDLC-OH; disulfide 2-8, 3-16)
IC50 [2]: 0.2 µM | IC50 [3]: 0.28 µM | IC50 [4]: 3.29 µM | IC50 [5]: > 10 µM | IC50 [6]: > 10 µM | IC50 [7]: > 10 µM | IC50 [8]: 1.58 µM | IC50 [9]: 0.28 µM

CSCC[C@@H]1NC(=O)[C@H](CC(N)=O)NC(=O)[C@@H]2CSSC[C@H](NC(=O)CN)C(=O)N[C@@H](CSSC[C@@H](C(=O)O)NC(=O)[C@H](Cc3ccc(OS(=O)(=O)O)cc3)NC(=O)[C@H](CC(=O)O)NC(=O)[C@@H]3CCCN3C(=O)[C@H](CC(N)=O)NC(=O)[C@H](CC(N)=O)NC1=O)C(=O)N[C@@H](CO)C(=O)N[C@@H](CC(=O)O)C(=O)N1CCC[C@H]1C(=O)N[C@@H](CCCNC(=N)N)C(=O)N2 (H-GCCSDPRCNMNNPD[sY]C-OH; disulfide 2-8, 3-16)
IC50 [2]: 0.03 µM

C[C@@H]1NC(=O)[C@@H]2CSSC[C@H](NC(=O)CN)C(=O)N[C@@H](CSSC[C@@H](C(=O)N[C@@H](CCCNC(=N)N)C(=O)O)NC(=O)[C@H](Cc3cnc[nH]3)NC(=O)[C@H](CCC(=O)O)NC(=O)[C@H](Cc3cnc[nH]3)NC1=O)C(=O)N[C@@H](CO)C(=O)N[C@@H](CC(N)=O)C(=O)N1CCC[C@H]1C(=O)N1CCC[C@H]1C(=O)N2 (H-GCCSNPPCAHEHCR-OH; disulfide 2-8, 3-13)
IC50 [2]: 1.1 µM | IC50 [10]: > 10 µM | IC50 [1]: > 10 µM | IC50 [11]: 0.63 µM | IC50 [12]: > 10 µM | IC50 [13]: > 10 µM | IC50 [14]: > 10 µM | IC50 [15]: > 10 µM | IC50 [16]: > 10 µM | IC50 [17]: > 10 µM | inhibition [18]: inactive | inhibition [19]: inactive | inhibition [20]: inactive | inhibition [21]: inactive | inhibition [22]: inactive | inhibition [23]: inactive

C[C@@H]1NC(=O)[C@@H]2CSSC[C@H](NC(=O)[C@@H](N)CCC(N)=O)C(=O)N[C@@H](CSSC[C@@H](C(N)=O)NC(=O)[C@H](Cc3cnc[nH]3)NC(=O)[C@H](CCC(=O)O)NC(=O)[C@H](Cc3cnc[nH]3)NC1=O)C(=O)N[C@@H](CO)C(=O)N[C@@H](CC(N)=O)C(=O)N1CCC[C@H]1C(=O)N1CCC[C@H]1C(=O)N2 (H-QCCSNPPCAHEHC-NH2; disulfide 2-8, 3-13)
IC50 [2]: 0.47 µM | IC50 [10]: > 10 µM | IC50 [1]: 1.56 µM | IC50 [11]: 0.55 µM | IC50 [12]: > 10 µM | IC50 [13]: > 10 µM | IC50 [14]: > 10 µM | IC50 [15]: > 10 µM | IC50 [16]: > 10 µM | IC50 [17]: > 10 µM | inhibition [18]: inactive | inhibition [19]: inactive | inhibition [20]: inactive | inhibition [21]: inactive | inhibition [22]: inactive | inhibition [23]: inactive
